The subject of assay [1] is OVA-induced airway inflammation. Kind of assay: OVA model: lung histology (haematoxylin/eosin). The assay is classed as in vivo, Balb/c mice. As to conditions: OVA-challenged mice; 1 2 mg/kg preventively or therapeutically, beclomethasone 1 mg/kg. The protocol:
Lungs from the Balb/c mice from the test-groups were isolated and fixed in 10% formalin with […] of the same solution introduced intratracheally prior the overnight fixation. Paraffin sections from the lungs were analyzed using a standard haematoxylin/eosin staining technique.
• (1) fix in Solution A (fixative); • (2) dip 5 times in Solution C (red); • (3) dip 5 times in Solution B (blue); • (4) rinse the slides in distilled water; • (5) air-drying of the slides; • (6) mounted the cover slides; and then • (7) 400 cells were counted under light microscopy. Histology Staining was then Performed as Follows: The lungs from all animals were fixed in 10% formalin (pH 7.4). Once fixed, tissue is processed as follows: • (1) 70% ethanol for 1 hour; • (2) 80% ethanol for 1 hour; • (3) 95% ethanol for 1 hour; • (4) first absolute ethanol for 1 hour; • (5) second absolute ethanol 1 hour; • (6) first clearing agent (xylene) for 1 hour; • (7) second clearing agent (xylene) for 1 hour; • (8) first wax at 58° C. for 1 hour; • (9) second wax at 58° C. for 1 hour; and • (10) embedding tissues in paraffin blocks. Tissues were sectioned using a microtome at 5 μm slices. […]

In the next assay the test system is IL-5. The experiment in a line: OVA model: IL-5 immunohistochemistry of lung sections. The class given is in vivo, Balb/c mice. As to conditions: OVA-sensitised mice; both compound 1 groups 2 mg/kg, beclomethasone 1 mg/kg. The protocol:
To investigate the treatment effect of compound 1, immunohistology from serial lung sections was performed 2 days after i.n. challenge in experimental mice that were treated with the compound 1 or beclomethasone as standard antiinflammatory and anti-asthmatic API.
• (1) Wash Buffer: T-PBS (0.1M, pH 7.4, 0.05% Tween 20); • (2) Blocking/Incubation Buffer: 1% bovine serum albumin, 0.1% Cold Fish Skin Gelatin, 0.5% Triton® X-100, 0.1 M PBS (pH 7.4); • (3) Peroxidase Blocking Solution (3% H2O2 in water); • (4) EDTA Antigen Retrieval Buffer (1 mM EDTA, 0.05% Tween 20, pH 8.0); • (5) Primary antibodies: • Rabbit anti-mouse IL-5 (Cat. #ABIN446956; Antibodies-Online GmbH, Schloss-Rahe-Str. 1552072 Aachen, Germany); • Rat anti-mouse CCL11 (Cat. #MAB420; R&D Systems, Inc., 614 McKinley Place Nebr., Minneapolis, Minn. 55413); • (6) Secondary antibodies: • Goat anti-rabbit IgG (H+L)-HRP (cat. #31466; Thermo Fisher Scientific, 168 Third Avenue Waltham, Mass. USA 02451); • Goat anti-rat IgG (H+L)—HRP (cat. #62-9520; Thermo Fisher Scientific, 168 Third Avenue Waltham, Mass. USA 02451); • (7) Pierce DAB Substrate Kit (DAB (10×), 25 mL; Stable Peroxide Buffer, 250 mL) (Catalog #34002; Thermo Fisher Scientific, 168 Third Avenue Waltham, Mass. […]

Consider `O=c1oc2cc(O)cc(O)c2c(O)c1-c1coc2c1c(=O)oc1cc(O)cc(O)c12` [Compound 1, 7,9-dihydroxy-3-(4,5,7-trihydroxy-2-oxo-2H-chromene-3-yl)-4H-furo[3,2-c]chromen-4-one], for which, in assay [1], the “Eosinophil and other inflammatory cell infiltration in lung histology” value was “not observed”. The “IL-5 expression in lung sections” value in the assay with IL-5 is on record as “no IL-5 expression”.

As to `C[C@H]1C[C@H]2[C@@H]3CCC4=CC(=O)C=C[C@]4(C)[C@@]3(Cl)[C@@H](O)C[C@]2(C)[C@@]1(O)C(=O)CO` [beclomethasone, reference compound], in assay [1], the “Eosinophil and other inflammatory cell infiltration in lung histology” value is recorded as “not observed”. Also, the “IL-5 expression in lung sections” value in the assay on IL-5 is given as “moderate result”.

These data come from patent publication US20210113522A1, “COUMARIN DERIVATIVE AS ANTI-ASTHMATIC AGENT, PHARMACEUTICAL COMPOSITION THEREOF, ITS PREPARATION AND USE” (I-NOVA MEDICINSKA ISTRAZIVANJA D.O.O., priority 2017, published 2021).
